In patent EP4707277A1, “NOVEL HETEROCYCLIC AMINE DERIVATIVES AND PHARMACEUTICAL COMPOSITION COMPRISING SAME” (Daewoong Pharmaceutical Co., Ltd., priority 2023, dated 2024):
Read-outs that look alike come from different tables or passages of the source.

Experiments:
ITK = molecular target: T1, ITK (Homo sapiens, UniProt Q08881); assay: Inhibitory activity against ITK, ADP-Glo Kinase system (Promega); assay type: biochemical
T1 construct: purchased Signalchem I13-11G-10
T1 sequence (Q08881 1-620): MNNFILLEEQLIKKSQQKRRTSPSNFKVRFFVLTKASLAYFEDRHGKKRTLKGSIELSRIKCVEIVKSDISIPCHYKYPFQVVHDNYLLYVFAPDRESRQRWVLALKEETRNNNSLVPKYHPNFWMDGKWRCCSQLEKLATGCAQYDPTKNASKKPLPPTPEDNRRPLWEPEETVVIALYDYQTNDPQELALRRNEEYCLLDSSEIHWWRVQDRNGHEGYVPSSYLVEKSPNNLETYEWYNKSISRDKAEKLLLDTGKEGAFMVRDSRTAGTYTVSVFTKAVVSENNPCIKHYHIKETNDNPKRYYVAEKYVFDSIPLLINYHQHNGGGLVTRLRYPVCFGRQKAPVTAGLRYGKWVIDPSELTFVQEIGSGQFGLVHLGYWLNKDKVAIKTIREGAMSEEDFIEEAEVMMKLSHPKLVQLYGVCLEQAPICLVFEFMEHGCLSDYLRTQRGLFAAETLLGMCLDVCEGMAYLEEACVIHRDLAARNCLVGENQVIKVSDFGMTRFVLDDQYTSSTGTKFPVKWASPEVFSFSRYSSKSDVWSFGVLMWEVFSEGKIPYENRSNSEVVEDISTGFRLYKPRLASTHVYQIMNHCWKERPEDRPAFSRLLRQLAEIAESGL
Procedure, shortened: (§1)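 ADP-Glo luminescent ADP detection with recombinant human ITK (4 ng/reaction) or BTK (10 ng/reaction) and poly(Glu4,Tyr1) substrate at 0.2 µg/µl. Buffer: Tris pH 7.5, MgCl2, MnCl2, BSA, DTT. ATP 1 mM or Km (BTK 10 µM, ITK 25 µM); 1% DMSO; 1 h at 30°C; IC50 from curve fit.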

BTK = molecular target: T2, BTK (Homo sapiens, UniProt Q06187); assay: Inhibitory activity against BTK, ADP-Glo Kinase system (Promega); assay type: biochemical
T2 construct: purchased Signalchem B10-10H
Procedure, shortened: as §1

[1] = Km ATP (ITK: 25uM), read-out: ITK IC50(nM) Km ATP
[2] = Km ATP (BTK: 10 uM), read-out: BTK IC50(nM) Km ATP
[3] = 1mM ATP, read-out: ITK IC50(nM) 1mM ATP
[4] = 1mM ATP, read-out: BTK IC50(nM) 1mM ATP

T2 sequence (Q06187 whole entry): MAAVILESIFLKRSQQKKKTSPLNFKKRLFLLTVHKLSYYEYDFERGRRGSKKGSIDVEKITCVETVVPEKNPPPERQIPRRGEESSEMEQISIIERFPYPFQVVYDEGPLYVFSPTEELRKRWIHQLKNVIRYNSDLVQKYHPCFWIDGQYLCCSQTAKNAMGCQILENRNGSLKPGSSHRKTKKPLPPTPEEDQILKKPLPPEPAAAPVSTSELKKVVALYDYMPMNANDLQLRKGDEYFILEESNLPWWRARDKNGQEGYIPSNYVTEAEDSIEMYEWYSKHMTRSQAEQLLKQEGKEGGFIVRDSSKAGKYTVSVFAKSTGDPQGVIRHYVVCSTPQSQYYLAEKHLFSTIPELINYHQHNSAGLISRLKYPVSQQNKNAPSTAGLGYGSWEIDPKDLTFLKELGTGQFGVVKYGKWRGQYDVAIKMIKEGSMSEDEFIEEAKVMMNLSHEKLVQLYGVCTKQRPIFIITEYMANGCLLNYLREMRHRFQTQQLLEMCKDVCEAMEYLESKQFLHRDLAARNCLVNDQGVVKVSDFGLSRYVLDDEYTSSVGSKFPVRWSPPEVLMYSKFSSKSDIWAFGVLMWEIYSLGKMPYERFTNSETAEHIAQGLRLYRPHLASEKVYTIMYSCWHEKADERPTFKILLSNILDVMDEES

Row | SMILES | IC50 (ITK; [1]) | IC50 (BTK; [2]) | IC50 (ITK; [3]) | IC50 (BTK; [4])
1 | C=CC(=O)N1CC=C(c2nc(Nc3ncc(C)s3)cc3c2ccn3C)C1 [Example 3, 1-(3-(1-methyl-6-((5-methylthiazol-2-yl)amino)-1H-pyrrolo[3,2-c]pyridin-4-yl)-2,5-dihydro-1H-pyrrol-1-yl)prop-2-en-1-one] | 100 to 500 nM | 100 to 500 nM |  | 
2 | C/C=C/C(=O)N1CC[C@H](Oc2nc(Nc3ncc(C)s3)cc3c2ccn3CC(C)C)C1 [Example 226, (S,E)-1-(3-((1-isobutyl-6-((5-methylthiazol-2-yl)amino)-1H-pyrrolo[3,2-c]pyridin-4-yl)oxy)pyrrolidin-1-yl)but-2-en-1-one] |  |  | > 500 nM | > 500 nM
3 | C=CC(=O)N1CC[C@H](Oc2nc(Nc3cc[nH]n3)cc3c2ccn3C(C)C)C1 [Example 192, (S)-1-(3-((6-((1H-pyrazol-3-yl)amino)-1-isopropyl-1H-pyrrolo[3,2-c]pyridin-4-yl)oxy)pyrrolidin-1-yl)prop-2-en-1-one] |  |  | 100 to 500 nM | ≤ 20 nM
4 | C=CC(=O)N1CC[C@H](Oc2nc(Nc3ncc(C)s3)cc3c2ccn3CC(C)CC)C1 (stereo partly drawn) [Example 123, 1-((3S)-3-((1-(2-methylbutyl)-6-((5-methylthiazol-2-yl)amino)-1H-pyrrolo[3,2-c]pyridin-4-yl)oxy)pyrrolidin-1-yl)prop-2-en-1-one] | ≤ 20 nM | ≤ 20 nM |  | 
5 | C=CC(=O)Nc1cc(C)cc(-c2nc(Nc3ncc(C)s3)cc3c2ccn3C)c1 [Example 53, N-(3-methyl-5-(1-methyl-6-((5-methylthiazol-2-yl)amino)-1H-pyrrolo[3,2-c]pyridin-4-yl)phenyl)acrylamide] | 100 to 500 nM | ≤ 20 nM |  | 
6 | C=CC(=O)N1CC[C@H](Oc2nc(Nc3cc(C(F)(F)F)ncn3)cc3c2ccn3C(C)C)C1 [Example 95, (S)-1-(3-((1-isopropyl-6-((6-(trifluoromethyl)pyrimidin-4-yl)amino)-1H-pyrrolo[3,2-c]pyridin-4-yl)oxy)pyrrolidin-1-yl)prop-2-en-1-one] |  |  | 100 to 500 nM | ≤ 20 nM
7 | C=CC(=O)N1CC[C@@H](Oc2nc(Nc3ncc(C)s3)cc3c2ccn3CC(C)C)C1 (stereo in doubt) [Example 82, (R)-1-(3-((1-isobutyl-6-((5-methylthiazol-2-yl)amino)-1H-pyrrolo[3,2-c]pyridin-4-yl)oxy)pyrrolidin-1-yl)prop-2-en-1-one] |  |  | > 500 nM | > 500 nM
8 | C=CC(=O)N1CCC2(CC(Oc3nc(Nc4ncc(C)s4)cc4c3ccn4CC(C)C)C2)C1 (stereo not shown) [Example 202, 1-(2-((1-isobutyl-6-((5-methylthiazol-2-yl)amino)-1H-pyrrolo[3,2-c]pyridin-4-yl)oxy)-6-azaspiro[3.4]octan-6-yl)prop-2-en-1-one] |  |  | 100 to 500 nM | 100 to 500 nM
9 | C=CC(=O)N1CC=C(c2nc(Nc3ncc(C)s3)cc3c2ccn3[C@@H](C)CC)CC1 [Example 13, (S)-1-(4-(1-(sec-butyl)-6-((5-methylthiazol-2-yl)amino)-1H-pyrrolo[3,2-c]pyridin-4-yl)-3,6-dihydropyridin-1(2H)-yl)prop-2-en-1-one] | ≤ 20 nM | ≤ 20 nM |  | 
10 | C=CC(=O)N1CC[C@H](Oc2nc(Nc3ncc(C)s3)cc3c2ccn3CC)C1 [Example 125, (S)-1-(3-((1-ethyl-6-((5-methylthiazol-2-yl)amino)-1H-pyrrolo[3,2-c]pyridin-4-yl)oxy)pyrrolidin-1-yl)prop-2-en-1-one] | ≤ 20 nM | ≤ 20 nM |  | 
11 | C=CC(=O)N1CC[C@H]1COc1nc(Nc2ncc(C)s2)cc2c1ccn2C(C)C [Example 86, (S)-1-(2-(((1-isopropyl-6-((5-methylthiazol-2-yl)amino)-1H-pyrrolo[3,2-c]pyridin-4-yl)oxy)methyl)azetidin-1-yl)prop-2-en-1-one] |  |  | 20 to 100 nM | ≤ 20 nM
12 | C=CC(=O)N1CCC[C@H](Oc2nc(Nc3ncc(C)s3)cc3c2ccn3C(C)C)C1 [Example 84, (S)-1-(3-((1-isopropyl-6-((5-methylthiazol-2-yl)amino)-1H-pyrrolo[3,2-c]pyridin-4-yl)oxy)piperidin-1-yl)prop-2-en-1-one] |  |  | 20 to 100 nM | ≤ 20 nM
13 | C=CC(=O)N1CC=C(c2nc(Nc3ncc(C)s3)cc3c2ccn3C2CCCC2)CC1 [Example 5, 1-(4-(1-cyclopentyl-6-((5-methylthiazol-2-yl)amino)-1H-pyrrolo[3,2-c]pyridin-4-yl)-3,6-dihydropyridin-1(2H)-yl)prop-2-en-1-one] | ≤ 20 nM | ≤ 20 nM |  | 

More lines, now with the values ahead:

Row | IC50 (ITK; [1]) | IC50 (BTK; [2]) | IC50 (ITK; [3]) | IC50 (BTK; [4]) | SMILES
14 |  |  | ≤ 20 nM | ≤ 20 nM | C=CC(=O)Nc1ccc(F)c(-c2nc(Nc3ncc(C)s3)cc3c2ccn3C(C)C)c1 [Example 59, N-(4-fluoro-3-(1-isopropyl-6-((5-methylthiazol-2-yl)amino)-1H-pyrrolo[3,2-c]pyridin-4-yl)phenyl)acrylamide]
15 |  |  | ≤ 20 nM | ≤ 20 nM | C=CC(=O)N1CC[C@@H]1COc1nc(Nc2ncc(C)s2)cc2c1ccn2C1CCCC1 [Example 223, (R)-1-(2-(((1-cyclopentyl-6-((5-methylthiazol-2-yl)amino)-1H-pyrrolo[3,2-c]pyridin-4-yl)oxy)methyl)azetidin-1-yl)prop-2-en-1-one]
16 |  |  | 20 to 100 nM | ≤ 20 nM | C=CC(=O)N1CCC[C@H](Oc2nc(Nc3ncc(C)s3)cc3c2ccn3C2CCCC2)C1 [Example 151, (S)-1-(3-((1-cyclopentyl-6-((5-methylthiazol-2-yl)amino)-1H-pyrrolo[3,2-c]pyridin-4-yl)oxy)piperidin-1-yl)prop-2-en-1-one]
17 |  |  | ≤ 20 nM | ≤ 20 nM | C=CC(=O)N1C[C@@H](F)[C@H](Oc2nc(Nc3ncc(C)s3)cc3c2ccn3C2CCCC2)C1 [Example 110, 1-((3R,4R)-3-((1-cyclopentyl-6-((5-methylthiazol-2-yl)amino)-1H-pyrrolo[3,2-c]pyridin-4-yl)oxy)-4-fluoropyrrolidin-1-yl)prop-2-en-1-one]
18 |  |  | ≤ 20 nM | ≤ 20 nM | C=CC(=O)N1C[C@@H](C)[C@H](Oc2nc(Nc3ncc(C)s3)cc3c2ccn3C(C)C)C1 (racemic) [Example 92, rac-1-((3S,4R)-3-((1-isopropyl-6-((5-methylthiazol-2-yl)amino)-1H-pyrrolo[3,2-c]pyridin-4-yl)oxy)-4-methylpyrrolidin-1-yl)prop-2-en-1-one]
19 |  |  | ≤ 20 nM | ≤ 20 nM | C=CC(=O)N1C[C@@H](Oc2nc(Nc3ncc(C)s3)cc3c2ccn3C)C[C@@H]1C [Example 185, 1-((2S,4S)-2-methyl-4-((1-methyl-6-((5-methylthiazol-2-yl)amino)-1H-pyrrolo[3,2-c]pyridin-4-yl)oxy)pyrrolidin-1-yl)prop-2-en-1-one]
20 |  |  | ≤ 20 nM | ≤ 20 nM | C=CC(=O)N1CC[C@H](Oc2nc(Nc3ncc(C)s3)cc3c2ccn3CCCF)C1 [Example 190, (S)-1-(3-((1-(3-fluoropropyl)-6-((5-methylthiazol-2-yl)amino)-1H-pyrrolo[3,2-c]pyridin-4-yl)oxy)pyrrolidin-1-yl)prop-2-en-1-one]
21 |  |  | ≤ 20 nM | ≤ 20 nM | C=CC(=O)N1CC(C)(Oc2nc(Nc3ncc(C)s3)cc3c2ccn3CC2CCCC2)C1 [Example 178, 1-(3-((1-(cyclopentylmethyl)-6-((5-methylthiazol-2-yl)amino)-1H-pyrrolo[3,2-c]pyridin-4-yl)oxy)-3-methylazetidin-1-yl)prop-2-en-1-one]
22 |  |  | ≤ 20 nM | ≤ 20 nM | C=CC(=O)N1C[C@H](F)[C@H](Oc2nc(Nc3ncc(C)s3)cc3c2ccn3C(C)C)C1 [Example 83, 1-((3S,4R)-3-fluoro-4-((1-isopropyl-6-((5-methylthiazol-2-yl)amino)-1H-pyrrolo[3,2-c]pyridin-4-yl)oxy)pyrrolidin-1-yl)prop-2-en-1-one]
23 |  |  | ≤ 20 nM | ≤ 20 nM | C=CC(=O)N1C[C@@H](Oc2nc(Nc3ncc(C)s3)cc3c2ccn3CC(C)C)C[C@@H]1C [Example 179, 1-((2S,4S)-4-((1-isobutyl-6-((5-methylthiazol-2-yl)amino)-1H-pyrrolo[3,2-c]pyridin-4-yl)oxy)-2-methylpyrrolidin-1-yl)prop-2-en-1-one]
24 | ≤ 20 nM | ≤ 20 nM | ≤ 20 nM | ≤ 20 nM | C=CC(=O)N1C2C=C(c3nc(Nc4ncc(C)s4)cc4c3ccn4CC(C)C)CC1CC2 (stereo not shown) [Example 32, 1-(3-(1-isobutyl-6-((5-methylthiazol-2-yl)amino)-1H-pyrrolo[3,2-c]pyridin-4-yl)-8-azabicyclo[3.2.1]oct-2-en-8-yl)prop-2-en-1-one]
25 |  |  | ≤ 20 nM | ≤ 20 nM | C=CC(=O)N1CC[C@H](Oc2nc(Nc3ncc(C)s3)cc3c2ccn3CC2CCCC2)C1 [Example 128, (S)-1-(3-((1-(cyclopentylmethyl)-6-((5-methylthiazol-2-yl)amino)-1H-pyrrolo[3,2-c]pyridin-4-yl)oxy)pyrrolidin-1-yl)prop-2-en-1-one]
